Structures can show the parent of a compound that is named as a salt. Where two headings read alike, the source gives them in different places.
Tests used:
[1] = tested on: SARS-CoV-2 in A549-Dual hACE2-TMPRSS2 cells; conditions: for EC50: read-out: A549-Dual hACE2-TMPRSS2 cells Average EC50
[2] = tested on: SARS-CoV-2 in Human Airway Epithelia (HAE)
[3] = tested on: SARS-CoV-2 in A549-Dual hACE2-TMPRSS2 cells; test: microbe, parasite or virus in culture; conditions: Severe acute respiratory syndrome coronavirus 2, read-out: A549-Dual hACE2-TMPRSS2 cells Average EC50

## Nc1c(Br)cc(Br)cc1CN[C@H]1CC[C@H](O)CC1 [Ambroxol, ambroxol]
[1]
  Activity In Vitro; Potency EC50 or IC50 < 10 µM; A549 Cells: No (Potency EC50 or IC50 < 10 µM)
[2]
  Activity Ex Vivo Human Airway Epithelia (HAE): No
[3]
  EC50: > 50 µM

## CCN(CC)Cc1cc(Nc2ccnc3cc(Cl)ccc23)ccc1O [Amodiaquine, amodiaquine]
[1]
  Activity In Vitro; Potency EC50 or IC50 < 10 µM; A549 Cells: No (Potency EC50 or IC50 < 10 µM)
[2]
  Activity Ex Vivo Human Airway Epithelia (HAE): No
[3]
  EC50: > 50 µM

## COC(=O)N[C@H](C(=O)N[C@@H](Cc1ccccc1)[C@@H](O)CN(Cc1ccc(-c2ccccn2)cc1)NC(=O)[C@@H](NC(=O)OC)C(C)(C)C)C(C)(C)C [Atazanavir, atazanavir]
[3]
  EC50: 24 µM

## CN(C)C(=O)COC(=O)Cc1ccc(OC(=O)c2ccc(NC(=N)N)cc2)cc1 [Camostat mesylate, camostat mesylate]
[1]
  Activity In Vitro; Potency EC50 or IC50 < 10 µM; A549 Cells: No (Potency EC50 or IC50 < 10 µM)
[2]
  Activity Ex Vivo Human Airway Epithelia (HAE): Yes
  Concentration showing activity / complete inhibition of viral replication in HAE: 10 µM
[3]
  EC50: > 50 µM

## COc1ccc2cc1Oc1ccc(cc1)C[C@H]1c3c(cc4c(c3Oc3cc5c(cc3OC)CCN(C)[C@@H]5C2)OCO4)CCN1C [Cepharanthine, cepharanthine]
[1]
  Activity In Vitro; Potency EC50 or IC50 < 10 µM; A549 Cells: No (Potency EC50 or IC50 < 10 µM)
[2]
  Activity Ex Vivo Human Airway Epithelia (HAE): No
[3]
  EC50: > 50 µM

## CC(C)/N=c1\cc2n(-c3ccc(Cl)cc3)c3ccccc3nc-2cc1Nc1ccc(Cl)cc1 [Clofazimine, clofazimine]
[1]
  Activity In Vitro; Potency EC50 or IC50 < 10 µM; A549 Cells: Yes (Potency EC50 or IC50 < 10 µM)
  Toxicity observed (^T), A549 Cells: Yes ^T
[2]
  Activity Ex Vivo Human Airway Epithelia (HAE): No
[3]
  EC50: 2.4 µM

## COc1cc2c(c(OC)c1OC)-c1ccc(OC)c(=O)cc1[C@@H](NC(C)=O)CC2 [Colchicine, colchicine]
[1]
  Activity In Vitro; Potency EC50 or IC50 < 10 µM; A549 Cells: Yes ^T (key: Yes: Potency EC50 or IC50 < 10 µM; No: Potency EC50 or IC50 < 10 µM)
[2]
  Activity Ex Vivo Human Airway Epithelia (HAE): No

## COC(=O)N[C@H](C(=O)N1CCC[C@H]1c1nc(-c2ccc(-c3ccc(-c4c[nH]c([C@@H]5CCCN5C(=O)[C@@H](NC(=O)OC)C(C)C)n4)cc3)cc2)c[nH]1)C(C)C [Daclatasvir, daclatasvir]
[1]
  Activity In Vitro; Potency EC50 or IC50 < 10 µM; A549 Cells: No (Potency EC50 or IC50 < 10 µM)
[2]
  Activity Ex Vivo Human Airway Epithelia (HAE): No
[3]
  EC50: > 50 µM

## O=c1nc(NO)ccn1[C@@H]1O[C@H](CO)[C@@H](O)[C@H]1O [EIDD-1931]
[1]
  EC50: 0.47 µM

## NC(=O)c1nc(F)c[nH]c1=O [Favipiravir, favipiravir]
[1]
  Activity In Vitro; Potency EC50 or IC50 < 10 µM; A549 Cells: No (Potency EC50 or IC50 < 10 µM)
[2]
  Activity Ex Vivo Human Airway Epithelia (HAE): No
[3]
  EC50: > 100 µM

## CNCCC(Oc1ccc(C(F)(F)F)cc1)c1ccccc1 (stereo not drawn) [Fluoxetine, fluoxetine]
[1]
  Activity In Vitro; Potency EC50 or IC50 < 10 µM; A549 Cells: No (key: Yes: Potency EC50 or IC50 < 10 µM; No: Potency EC50 or IC50 < 10 µM)
[2]
  Activity Ex Vivo Human Airway Epithelia (HAE): No

## COCCCC/C(=N\OCCN)c1ccc(C(F)(F)F)cc1 [Fluvoxamine maleate, fluvoxamine maleate]
[1]
  Activity In Vitro; Potency EC50 or IC50 < 10 µM; A549 Cells: No (key: Yes: Potency EC50 or IC50 < 10 µM; No: Potency EC50 or IC50 < 10 µM)
[2]
  Activity Ex Vivo Human Airway Epithelia (HAE): No
[3]
  EC50: 39.9 µM

## OC(c1cc(C(F)(F)F)nc2c(C(F)(F)F)cccc12)C1CCCCN1 (stereo not drawn) [Mefloquine, mefloquine]
[1]
  Activity In Vitro; Potency EC50 or IC50 < 10 µM; A549 Cells: No (Potency EC50 or IC50 < 10 µM)
[2]
  Activity Ex Vivo Human Airway Epithelia (HAE): No
[3]
  EC50: > 50 µM

## CC(C)C(=O)OC[C@H]1O[C@@H](n2ccc(NO)nc2=O)[C@H](O)[C@@H]1O [Molnupiravir, molnupiravir]
[1]
  Activity In Vitro; Potency EC50 or IC50 < 10 µM; A549 Cells: Yes (Potency EC50 or IC50 < 10 µM)
[2]
  Activity Ex Vivo Human Airway Epithelia (HAE): Yes
  Concentration showing activity / complete inhibition of viral replication in HAE: 10 µM
[3]
  EC50: 3.6 µM

## Cc1c(O)cccc1C(=O)N[C@@H](CSc1ccccc1)[C@H](O)CN1C[C@H]2CCCC[C@H]2C[C@H]1C(=O)NC(C)(C)C [Nelfinavir, nelfinavir]
[1]
  Activity In Vitro; Potency EC50 or IC50 < 10 µM; A549 Cells: Yes (Potency EC50 or IC50 < 10 µM)
  Toxicity observed (^T), A549 Cells: Yes ^T
[2]
  Activity Ex Vivo Human Airway Epithelia (HAE): Yes
  Concentration showing activity / complete inhibition of viral replication in HAE: 10 µM
[3]
  EC50: 3.2 µM

## CC(C)(C)[C@H](NC(=O)C(F)(F)F)C(=O)N1C[C@H]2[C@@H]([C@H]1C(=O)N[C@H](C#N)C[C@@H]1CCNC1=O)C2(C)C [Nirmatrelvir, nirmatrelvir]
[1]
  Activity In Vitro; Potency EC50 or IC50 < 10 µM; A549 Cells: Yes (Potency EC50 or IC50 < 10 µM)
[2]
  Activity Ex Vivo Human Airway Epithelia (HAE): Yes
  Concentration showing activity / complete inhibition of viral replication in HAE: 1 µM

## CC(=O)Oc1ccccc1C(=O)Nc1ncc([N+](=O)[O-])s1 [Nitazoxanide, nitazoxanide]
[1]
  Activity In Vitro; Potency EC50 or IC50 < 10 µM; A549 Cells: No (Potency EC50 or IC50 < 10 µM)
[2]
  Concentration showing activity / complete inhibition of viral replication in HAE: 5 µM
[3]
  EC50: > 100 µM

## CC(=O)CCCCn1c(=O)c2c(ncn2C)n(C)c1=O [Pentoxyfilline, pentoxyfilline]
[1]
  Activity In Vitro; Potency EC50 or IC50 < 10 µM; A549 Cells: No (Potency EC50 or IC50 < 10 µM)
[2]
  Activity Ex Vivo Human Airway Epithelia (HAE): No
[3]
  EC50: > 50 µM

## CCCN(CCC)S(=O)(=O)c1ccc(C(=O)O)cc1 [Probenecid, probenecid]
[1]
  Activity In Vitro; Potency EC50 or IC50 < 10 µM; A549 Cells: No (Potency EC50 or IC50 < 10 µM)
[2]
  Activity Ex Vivo Human Airway Epithelia (HAE): No
[3]
  EC50: > 50 µM

## CC1(C)C(=O)N(c2ccc(C#N)c(C(F)(F)F)c2F)C(=S)N1c1ccc(CCCc2ncco2)nc1 [Proxalutamide, proxalutamide]
[1]
  Activity In Vitro; Potency EC50 or IC50 < 10 µM; A549 Cells: No (Potency EC50 or IC50 < 10 µM)
  EC50: > 50 µM
[2]
  Activity Ex Vivo Human Airway Epithelia (HAE): No

## CC(C)OC(=O)[C@H](C)N[P@](=O)(OC[C@H]1O[C@@H](n2ccc(=O)[nH]c2=O)[C@](C)(F)[C@@H]1O)Oc1ccccc1 [Sofosbuvir, sofosbuvir]
[1]
  Activity In Vitro; Potency EC50 or IC50 < 10 µM; A549 Cells: No (Potency EC50 or IC50 < 10 µM)
[2]
  Activity Ex Vivo Human Airway Epithelia (HAE): No
[3]
  EC50: > 50 µM

## O=C(Nc1ncc([N+](=O)[O-])s1)c1ccccc1O [Tizoxanide, tizoxanide]
[3]
  EC50: > 100 µM

## bemnifosbuvir
[1]
  Activity In Vitro; Potency EC50 or IC50 < 10 µM; A549 Cells: No (Potency EC50 or IC50 < 10 µM)
  EC50: > 50 µM
[2]
  Activity Ex Vivo Human Airway Epithelia (HAE): No

## ivermectin
[1]
  A549-Dual hACE2-TMPRSS2 cells Average EC50: +NA
  Activity In Vitro; Potency EC50 or IC50 < 10 µM; A549 Cells: Yes (Potency EC50 or IC50 < 10 µM)
[2]
  Activity Ex Vivo Human Airway Epithelia (HAE): Yes
